These results are taken from patent US11331290B2, “Niclosamide for the treatment of cancer metastasis” (Max-Delbrück-Centrum für Molekulare Medizin in der …, priority 2011, dated 2022).

SMILES strings stand for the structures.

One data set has as its system DLD-1 cells. The data set is described as follows: Boyden chamber transwell migration assay. In kind it is cell-based, human. The conditions noted are these: 1 μM, 24 h. The method, then:
(§1) HCT116, SW620, LS174T, SW480 and DLD-1 cells were used in cell migration and invasion analysis performed with Boyden chamber assay. 400 μL containing 2.5×10^5 cells were seeded into each transwell chamber with filter membranes of 12.0 μm pore size (Millipore, Schwalbach, Germany). For invasion filter membranes were coated with 50 μL Matrigel (diluted 1:3 in RPMI-1640; BD Biosciences) 10 minutes before cells were seeded. Fresh medium (600 μL) were added to the bottom chamber and cells were allowed to attach to the insets for 15 hours. Both chambers were treated with 1 μM niclosamide or the respective amount of DMSO and incubated at 37° C. and 5% CO2 in a humidified incubator for 24 hours. Afterwards insets were removed and cells that had migrated through the membrane to the lower chamber were trypsinized and counted in a Neubauer chamber (LO-Laboroptik, Bad Homburg, Germany). Each well was counted ten times. Each migration or invasion experiment was performed in duplicate. The average number of migrated or invaded cells was determined for at least three independent experiments.
(§2) (A) S100A4 expression under niclosamide treatment. Cells were treated with 1 μM niclosamide for 24 hours. S100A4 expression was analyzed with qRT-PCR and immunoblot. (B) Cell migration under niclosamide treatment. Migration rates of cells treated with 1 μM niclosamide for 24 hours were determined in a Boyden chamber assay values were normalized to solvent-treated SW620 cells. (C) Cell invasion under niclosamide treatment. Cells were seeded onto Matrigel covered transwells and treated with 1 μM niclosamide for 24 hours. Invaded cells in the lower chamber were counted and normalized to solvent-treated SW620 cells. Differences in solvent vs. niclosamide-treated cells were analyzed by Student's t test. Data represent mean±SE of at least two independent experiments each performed in triplicate. (D) Directed migration under niclosamide treatment. Wounds of 300 μM width were set in a 60% confluent monolayer of cells on day 1. Cells were treated daily with 1 μM niclosamide for 4 days. Microphotographs of day 4 are presented here with black lines indicating margins of the wound on day 1; scale bar represents 200 μM. Directed migration data shown are representatives of three independent experiments. (E) Adhesive cell proliferation under niclosamide treatment. Cells were treated daily with 1 μM niclosamide. The amount of viable cells per well was determined by MTT assay. (F) Anchorage-independent cell growth under niclosamide treatment. Cells were plated as single cells into 0.33% (w/v) agarose and treatment (solvent or 1 μM niclosamide) containing medium. After 7 days colonies were visualized by light microscopy at 10× (overview) and 40× (single colony) magnification. (G) Quantification of colonies formed. Number of colonies (of more than 4 cells) was counted and normalized to solvent-treated SW620 cells. Differences in solvent vs. niclosamide-treated cells were analyzed by Student's t test. Data represent mean mean±SE of at least two independent experiments each performed in duplicates.

In another data set the test system is LS174T cells. Briefly: Boyden chamber transwell migration assay. In kind it is cell-based, human. The following applies: 1 μM, 24 h. As for the experimental part:
as §1, §2

In another data set the test system is SW480 cells. The data set is described as follows: Boyden chamber transwell migration assay. In kind it is cell-based, human. The following applies: 1 μM, 24 h. As for the experimental part:
as §1, §2

The test system of the next data set is SW620 cells. The data set is described as follows: Boyden chamber transwell migration assay. It is filed as cell-based, human. The following applies: 1 μM, 24 h. The method, then: as §1, §2
The conditions of data set [1]: humans, taken orally; cited from earlier work.

In the case of `O=C(Nc1ccc([N+](=O)[O-])cc1Cl)c1cc(Cl)ccc1O` [niclosamide, 2′,5-dichloro-4′-nitrosalicylanilide], in the data set on DLD-1 cells, the cell migration rate result is “not further affected”. For the same compound, the “migration, mean difference control vs niclosamide” value with LS174T cells turned out to be 41.3%; with SW480 cells, 11.1%; in the data set with SW620 cells it was 52.1%. Moreover, the “cell migration rate, mean % (normalized to solvent-treated SW620 cells)” value is given as 26.8% in the data set on LS174T cells (solvent control 68.2%), 10.6% in the data set on SW480 cells (solvent control 21.7%) and 47.9% in the data set with SW620 cells (solvent control 100.0%). The side effects result in data set [1] is reported as “only slight side effects”.
